Results from US20130011538A1, “CRYSTAL OF MULTIVALENT METAL SALT OF MONATIN” (Ajinomoto Co., Inc., priority 2011, published 2013).
Counter-ions that a name gives are not always drawn.

Assays:
[1] = Sweetness intensity evaluated by panelists in comparison with an aqueous solution of 5% sucrose; conditions: in comparison with the sweetness intensity of an aqueous solution of 5% sucrose; average of 7 panelists
Procedure: <Moisture content> 10.8 wt % (corresponding to the following equation: monatin:water=2:4) <Magnesium content> 3.6 wt % (corresponding to the following equation: monatin:magnesium=2:1)< <Characteristic X-ray diffraction peaks (2θ±0.2°, CuKα)> 8.9°, 11.2°, 15.0°, 17.8°, and 22.5° (FIG. 3)< <Crystalline form> The crystalline form in the deposited ML was a relatively small flake-like form (FIG. 4)< <Sweetness intensity> 2700 times higher (in comparison with the sweetness intensity of an aqueous solution of 5% sucrose, average of the sweetness intensities evaluated by 7 panelists)

[2] = Transmittance of monatin solution after storage (products containing glucose); type: physicochemical; conditions: storage at 44° C. and 78%
Procedure: (§1) <Name of device> UV-visible spectrophotometer, Cary 50, manufactured by Varian Medical Systems, Inc. <Measurement wavelength>430 nm
(§2) <Sample> 1 g of sweetener composition is totally dissolved in 50 mL of water.
(§3) 1 g of each sweetener composition shown in the compositional table 1 was filled in a paper packaging material, and the packaging material was sealed with a heat seal. The composition was stored for a given period of time in a constant temperature and constant humidity device at 44° C. and 78%. Then, the total amount of the stored sample was dissolved in 50 mL of water, and the residual ratio of each monatin salt was calculated from the data obtained by HPLC analysis of the solution.

[3] = Transmittance of monatin solution after storage (products containing sucrose); type: physicochemical; conditions: storage at 44° C. and 78%
Procedure: as §1, §2
as §3, with “table 2” for “table 1”

Change in color after storage [2] | Transmittance of the solution after storage (in words) [2] | Change in color after storage [3] | Transmittance of the solution after storage (in words) [3] | Compound | Sweetness intensity [1] [times]
– | – | – | – | NC(CC(O)(Cc1c[nH]c2ccccc12)C(=O)[O-])C(=O)O.NC(CC(O)(Cc1c[nH]c2ccccc12)C(=O)[O-])C(=O)O.O.O.O.O.[Mg+2] [Example 2, ((2R,4R)-monatin)2 magnesium salt tetrahydrate] | 2700
colored yellow | decreased | colored yellow | decreased | NC(CC(O)(Cc1c[nH]c2ccccc12)C(=O)O)C(=O)O [potassium salt, (2R,4R)-monatin monopotassium salt] | –
